Tests used:
[1] = Stability of PU-48 in rat plasma QC samples (HPLC); assay type: in vitro ADME; conditions: for Stability: Measured Concentration: n=3
Procedure: HPLC Analysis and Method Validation
The concentration of PU -48 prototype in biological sample (feces and plasma protein binding analysis) was determined using a validated high -performance liquid chromatographic (HPLC) method in our preliminary experiment. Briefly, the analysis was performed using a HPLC consistent of model 510 pump with a model 2487 ultraviolet detector, a model Rheodyne 7725 injector, and a column oven. The analytical conditions were as follows: the detection wavelength: 293 nm; analytical column: a reversed-phase Acclaim C18 (4.6 mm × 250 mm, 5.0 µm, Dionex); column temperature: 25 C; mobile phase: acetonitrile: distilled water at a ratio of 60: 40 ( v/v); flow rate: 1 mL/min. In this study, the methods for the feces samples, were evaluated for specificity, linearity, precision, accuracy and […]
The intra- and inter-day precision and accuracy were determined by analyzing five replicates of QC samples (low, medium and high concentrations of 0.005, 0.08 and 1.6 µg/mL) at each QC level on the same day and on five consecutive days. The precision was expressed as the relative standard deviation (RSD) between the measured values and the targeted values. The pass c riterion was set at <15%. The accuracy was expressed as relative error (RE) between the measured values and the targeted values, which was set at < ± 15% (for the low concentration, the acceptance criterion was <20%). The stability of PU -48 in rat plasma w as determined by analyzing QC samples stored in different conditions, including room temperature and light irradiation for 24 h, post -preparation (the extracted samples were stored at 4°C for 96 h), three cycles of freeze and thaw (freezing at -20°C for 24 h and thawing at room temperature) and long-term stored at −20°C for 3 months. All of the QC samples for stability assessment were analyzed in triplicate.

[2] = test system: plasma protein; test: Plasma protein binding by equilibrium dialysis, rat plasma; assay type: in vitro ADME; conditions: for Concentration in Buffer (post-dialysis) / Concentration in Plasma (post-dialysis) / Protein-Binding Ratio: rat plasma, n=5; for Concentration in Buffer (post-dialysis) / Concentration in Plasma (post-dialysis): 37 °C 24 h
Procedure: The concentration of PU-48 prototype in biological sample (feces and plasma protein binding analysis) was determined using a validated high-performance liquid chromatographic (HPLC) method our preliminary experiment (See Supplementary Materials HPLC Analysis and Method Validation). Briefly, the quantitative analysis of PU-48 was performed using a HPLC consistent of model 510 pump with a model 2487 ultraviolet detector, a model Rheodyne 7725 injector, and a column oven. The analytical conditions were as follows—The detection wavelength—293 nm; analytical column—a reversed-phase Acclaim C18 (4.6 mm × 250 mm, 5.0 µm, Dionex, Sunnyvale, CA, USA); column temperature—25 °C; mobile phase—acetonitrile—distilled water at a ratio of 60:40 (v/v); flow rate—1 mL/min. In this study, the methods for the feces samples were evaluated for specificity, linearity, precision, accuracy, and recovery (See Supplementary Materials Tables S4–S6).
The binding ratio of PU-48 to plasma protein was determined by equilibrium dialysis. A volume of 1 mL of plasma with PU-48 (0.25, 1 and 4 µg/mL) was added to a semi-permeable membrane bag (plasma chamber), the bag was place into the other clean tube with 9 mL PBS (buffer chamber). The equilibrium dialysis was performed at 37 °C for 24 h. At the end of dialysis, 500 μL each of post-dialysis samples from the plasma and the buffer chambers were collected and analyzed by HPLC method. The plasma protein binding of PU-48 was calculated from the concentration of PU-48 in PBS (free concentration) and in plasma (free + bound) according to equation: Bound (%) = (Concplasma chamber − Concbuffer chamber)/Concplasma chamber × 100%.

[3] = extracted rat plasma samples, post−preparative (at 4 °C for 96 h), actual 0.005 µg/mL
[4] = extracted rat plasma samples, post−preparative (at 4 °C for 96 h), actual 0.08 µg/mL
[5] = extracted rat plasma samples, post−preparative (at 4 °C for 96 h), actual 1.6 µg/mL
[6] = rat plasma, freeze−thawing three cycles (at −20 °C), actual 0.005 µg/mL
[7] = rat plasma, freeze−thawing three cycles (at −20 °C), actual 0.08 µg/mL
[8] = rat plasma, freeze−thawing three cycles (at −20 °C), actual 1.6 µg/mL
[9] = rat plasma, freezing storage (at −20 °C for 3 months), actual 0.005 µg/mL
[10] = rat plasma, freezing storage (at −20 °C for 3 months), actual 0.08 µg/mL
[11] = rat plasma, light and room temperature for 24 h, actual 0.005 µg/mL
[12] = rat plasma, light and room temperature for 24 h, actual 0.08 µg/mL
[13] = rat plasma, light and room temperature for 24 h, actual 1.6 µg/mL

COC(=O)c1sc2nc3ccc(OC)cc3cc2c1N [PU-48, Methyl 3-amino-6-methoxythieno [2,3-b] quinoline-2-carboxylate]
Stability: Accuracy (RE) [1, 3]: −8.43% | Stability: Measured Concentration [1, 3]: 0.0046 ± 0.0006 µg/mL | Stability: Accuracy (RE) [1, 4]: −10.23% | Stability: Measured Concentration [1, 4]: 0.0718 ± 0.0019 µg/mL | Stability: Accuracy (RE) [1, 5]: −3.08% | Stability: Measured Concentration [1, 5]: 1.5507 ± 0.0904 µg/mL | Stability: Accuracy (RE) [1, 6]: −7.33% | Stability: Measured Concentration [1, 6]: 0.0046 ± 0.0004 µg/mL | Stability: Accuracy (RE) [1, 7]: −3.43% | Stability: Measured Concentration [1, 7]: 0.0773 ± 0.0055 µg/mL | Stability: Accuracy (RE) [1, 8]: −8.49% | Stability: Measured Concentration [1, 8]: 1.4641 ± 0.0840 µg/mL | Stability: Accuracy (RE) [1, 9]: −9.37% | Stability: Measured Concentration [1, 9]: 0.0045 ± 0.0002 µg/mL | Stability: Accuracy (RE) [1, 10]: −6.48% | Stability: Measured Concentration [1, 10]: 0.0748 ± 0.0058 µg/mL | Stability: Accuracy (RE) ([1]; rat plasma, freezing storage (at −20 °C for 3 months), actual 1.6 µg/mL): −10.15% | Stability: Accuracy (RE) [1, 11]: −9.278% | Stability: Measured Concentration [1, 11]: 0.0045 ± 0.0003 µg/mL | Stability: Accuracy (RE) [1, 12]: 9.07% | Stability: Measured Concentration [1, 12]: 0.0873 ± 0.0011 µg/mL | Stability: Accuracy (RE) [1, 13]: −10.63% | Stability: Measured Concentration [1, 13]: 1.4299 ± 0.0296 µg/mL | Concentration in Buffer (post-dialysis) ([2]; added 0.25 µg/mL): 12 ± 3 ng/mL | Concentration in Plasma (post-dialysis) ([2]; added 0.25 µg/mL): 127 ± 7 ng/mL | Protein-Binding Ratio ([2]; added 0.25 µg/mL): 90.70 ± 2.18% | Concentration in Buffer (post-dialysis) ([2]; added 1 µg/mL): 47 ± 2 ng/mL | Concentration in Plasma (post-dialysis) ([2]; added 1 µg/mL): 524 ± 32 ng/mL | Protein-Binding Ratio ([2]; added 1 µg/mL): 91.06 ± 0.78% | Concentration in Buffer (post-dialysis) ([2]; added 4 µg/mL): 194 ± 19 ng/mL | Concentration in Plasma (post-dialysis) ([2]; added 4 µg/mL): 2128 ± 166 ng/mL | Protein-Binding Ratio ([2]; added 4 µg/mL): 90.83 ± 1.17% | fraction unbound at 24 h ([2]; rat, plasma, rats, overall statement): < 0.1
